# Test results: ChEMBL document CHEMBL2385043, “Recent advances in malaria drug discovery” (Bioorg Med Chem Lett, 2013)
# What was measured:
# Plasmodium vinckei [1] = assay: Antimalarial activity against Plasmodium vinckei infected in po dosed Swiss mouse; type: functional
# [2] = Oral bioavailability in rat; type: ADME, organism-based; conditions: in vivo
# Plasmodium falciparum [3] = assay: Antiplasmodial activity against drug-sensitive Plasmodium falciparum 3D7; type: functional, organism-based
# Plasmodium berghei [4] = assay: Antimalarial activity against Plasmodium berghei ANKA infected in mouse assessed as reduction in parasitemia at 40 mg/kg, ip relative to control; type: functional; conditions: route intraperitoneal
# Plasmodium falciparum [5] = assay: Antiplasmodial activity against erythrocytic stage of multidrug-resistant Plasmodium falciparum K1; type: functional, organism-based
# Plasmodium falciparum [6] = assay: Antiplasmodial activity against chloroquine-resistant Plasmodium falciparum K1; type: functional, organism-based
# Plasmodium [7] = assay: Antimalarial activity against Plasmodium infected in mouse; type: functional
# [8] = Oral bioavailability in Sprague-Dawley rat; type: ADME, organism-based; conditions: in vivo
# Plasmodium falciparum [9] = assay: Antiplasmodial activity against Plasmodium falciparum VS/1 expressing DHFR quadruple mutation by [3H]-hypoxanthine incorporation assay; type: functional, organism-based
# [10] = Half life in po dosed Sprague-Dawley rat by LC/MS/MS analysis; type: ADME, organism-based; conditions: in vivo
# Plasmodium falciparum [11] = assay: Antiplasmodial activity against wild type Plasmodium falciparum TM4 by [3H]-hypoxanthine incorporation assay; conditions: TM4, 3 h
# Plasmodium falciparum [12] = assay: Antimalarial activity against Plasmodium falciparum VS/1 expressing DHFR quadruple mutation infected in po dosed SCID mouse assessed as reduction in parasitemia administered 3 days post infection measured on day 6; type: functional; conditions: VS/1, po
# Plasmodium falciparum [13] = assay: Antiplasmodial activity against drug-sensitive Plasmodium falciparum 3D7 after 72 hrs by SYBR Green staining-based fluorescence assay; type: functional, organism-based; conditions: 3D7, 72 h
# Plasmodium falciparum [14] = assay: Antimalarial activity against Plasmodium falciparum infected in mouse; type: functional
# Plasmodium falciparum [15] = assay: Antiplasmodial activity against multidrug-resistant Plasmodium falciparum Dd2 after 72 hrs by SYBR Green staining-based fluorescence assay; type: functional, organism-based; conditions: Dd2, 72 h
# Plasmodium falciparum [16] = assay: Antiplasmodial activity against drug-sensitive Plasmodium falciparum NF54; type: functional, organism-based
# Plasmodium falciparum [17] = assay: Antimalarial activity against Plasmodium falciparum infected in SCID mouse; type: functional
# Plasmodium berghei [18] = assay: Antimalarial activity against erythrocytic stage of Plasmodium berghei infected in po dosed mouse administered for 3 days; type: functional; conditions: 72 h
# Plasmodium yoelii = assay: Antiplasmodial activity against liver stage of Plasmodium yoelii; type: functional, organism-based
# Plasmodium falciparum [19] = assay: Antiplasmodial activity against blood stage of Plasmodium falciparum; type: functional, organism-based
# [20] = Oral bioavailability in mouse; type: ADME, organism-based; conditions: in vivo
# Plasmodium vinckei [21] = assay: Antimalarial activity against Plasmodium vinckei infected in ip dosed Swiss mouse at 0.5 to 1% parasitemia; type: functional
# Plasmodium [22] = assay: Antiplasmodial activity against Plasmodium; type: functional
# Plasmodium [23] = assay: Antimalarial activity against Plasmodium infected in ip dosed mouse; type: functional
# Plasmodium vinckei [24] = assay: Antimalarial activity against Plasmodium vinckei infected in ip dosed Swiss mouse at 5 to 10% parasitemia; type: functional
# [25] = Half life in human; type: ADME, organism-based; conditions: in vivo
# Plasmodium falciparum [26] = assay: Antiplasmodial activity against erythrocytic stage of multidrug-resistant Plasmodium falciparum W2; type: functional, organism-based
# Plasmodium berghei [27] = assay: Antimalarial activity against Plasmodium berghei str. ANKA infected in po dosed mouse assessed as reduction in parasitemia; type: functional
compound,measurement,setting,value
C/C(=C1\CCOC(=O)S1)N(C=O)CCCCCCCCCCCCN(C=O)/C(C)=C1/CCOC(=O)S1,ED50,Plasmodium vinckei [1],5 mg/kg/day
same,bioavailability,[2],15%
CCN(CC)Cc1cc(Nc2ccnc3cc(Cl)ccc23)ccc1O,EC50,Plasmodium falciparum [3],11 nM
COc1cc2c(NC3CCN(C)CC3)nc(N3CCCN(C)CC3)nc2cc1OCc1ccccc1,fold change (FC),Plasmodium berghei [4],18
same,EC50,Plasmodium falciparum [3],100 nM
CSc1ccc2nc(N(Cc3cccnc3)C(=O)c3ccc(C(C)(C)C)cc3)sc2c1,EC50,Plasmodium falciparum [5],326 nM
CN1CCN(C2CCN(C(=O)CC3CCC4(CC3)OOC3(OO4)C4CC5CC(C4)CC3C5)CC2)CC1 (configuration not stated),IC50,Plasmodium falciparum [6],1.9 nM
same,ED50,Plasmodium [7],1.8 mg/kg/day
same,IC50,Plasmodium falciparum [3],4.9 nM
CCc1nc(N)nc(N)c1OCCCOc1ccccc1CCC(=O)O.Cl,bioavailability,[8],46%
same,IC50,Plasmodium falciparum [9],56 nM
same,half-life,[10],7.3 h
same,IC50,Plasmodium falciparum [11],4.6 nM
same,ED50,Plasmodium falciparum [12],0.3 mg/kg/day
CCOc1ccc(F)cc1C1(O)C(N)=Nc2ccc(Cl)cc21 (configuration not stated),EC50,Plasmodium falciparum [13],28 nM
same,ED99,Plasmodium falciparum [14],100 mg/kg/day
same,EC50,Plasmodium falciparum [15],65 nM
CC(=O)N1CCN(c2ccc(CN(C(=O)/C=C/c3ccc(C(F)(F)F)cc3)[C@@H](Cc3ccccc3)C(=O)N3CCN(Cc4ccc(N(C)CCO)cc4)CC3)cc2)CC1,EC50,Plasmodium falciparum [16],1 nM
same,ED90,Plasmodium falciparum [17],8.4 mg/kg/day
same,ED90,Plasmodium berghei [18],54 mg/kg/day
C[C@H](NC(=O)[C@H](Cc1ccccc1)C[C@@H](O)[C@H](Cc1ccccc1)NC(=O)OC(C)(C)C)C(=O)N[C@@H]1C(=O)N(C)c2ccccc2-c2ccccc21,EC50,Plasmodium yoelii,7.8 nM
same,EC50,Plasmodium falciparum [19],17 nM
CN1CCN(C2CCN(C(=O)CC3CCC4(CC3)OOC3(OO4)C4CC5CC(C4)CC3C5)CC2)CC1.Cc1ccc(S(=O)(=O)O)cc1 (configuration not stated),bioavailability,[2],38%
same,bioavailability,[20],42%
Cc1c(CCO)sc[n+]1CCCCCCCCCCCC[n+]1csc(CCO)c1C.[I-].[I-],ED50,Plasmodium vinckei [21],1 mg/kg/day
same,EC50,Plasmodium [22],2 nM
same,ED50,Plasmodium vinckei [1],13 mg/kg/day
same,ED50,Plasmodium [23],0.2 mg/kg/day
same,bioavailability,[20],2%
same,ED50,Plasmodium vinckei [24],≤ 0.5 mg/kg/day
CO[C@H]1O[C@@H]2O[C@@]3(C)CC[C@H]4[C@H](C)CC[C@@H]([C@H]1C)[C@@]24OO3,half-life,[25],1 h
COc1cc2nc(N3CCCN(C)CC3)nc(NC3CCN(Cc4ccccc4)CC3)c2cc1OC,fold change (FC),Plasmodium berghei [4],2
same,EC50,Plasmodium falciparum [3],75 nM
CC(C)(C)c1cc(C(=O)N2CCN(c3ncccc3C(F)(F)F)CC2)n(Cc2ccccc2)n1,EC50,Plasmodium falciparum [3],100 nM
"O[C@@H](c1cc(C(F)(F)F)nc2c(C(F)(F)F)cccc12)[C@H]1CCCCN1 (relative stereo) [(S,R)-MEFLOQUINE]",EC50,Plasmodium falciparum [26],7 nM
same,ED50,Plasmodium berghei [27],3.3 mg/kg
same,half-life,[25],336 h
